Assay results reported in paper PMC9867837 (Cancer letters, 2022).
Values after ≈ are worked out from the molar mass of the structure shown. Values joined by “and” are separate entries in the source; they are usually repeats but may differ in a detail not shown here. Identical values can stand only once. Like-named read-outs stand apart in the source and are kept apart here.

Columns and labels:
[1] = target: T1, pY705Stat3 (Homo sapiens, UniProt P40763); assay: Western blotting for pY705Stat3 in treated breast cancer cells; type: cell-based; details: for Effect on constitutive Stat3 Tyr phosphorylation (pYStat3) in cells: MDA-MB-468 and MDA-MB-231, 0–5 μM, 1 or 2 h
T1 construct: endogenous in cells
Protocol: These studies were performed as previously described. Details are presented in Supplementary Information, “Methods”.
Nuclear extracts and whole-cell lysates were prepared, and samples of equal total protein were subjected to Stat3 DNA-binding assay/EMSA analysis using the hSIE probe, or to SDS/PAGE and Western blotting analysis for pY705Stat3, Stat3, or GAPDH [11, 12]. […] Depending on the concentration (1, 3, or 5 μM), the inhibitory effects of the azetidine compounds were observed relatively early, at 30–60 min, on both Stat3 DNA-binding activity (Fig. 4C) and Tyr phosphorylation (Fig. 4D, pY705Stat3).
During confluence of cultured cells, the cell-to-cell adhesion and cadherin engagement trigger increased Tyr705Stat3 phosphorylation in a variety of cell lines. To investigate the impact of cell-to-cell adhesion and cadherin engagement, parallel studies were conducted in which cells in culture were untreated or treated with 1 or 2 μM H182 for 0.5–48 h, and whole-cell lysates prepared and immunoprobed for pTyr705Stat3. […] After 48-h incubation, the cell confluency of the DMSO-treated samples reached to around 60% for MDA-MB-468 cells and 80% for MDA-MB-231 cells. […] In the untreated cells, Stat3 (red punctate) staining was predominantly localized in the nucleus of the tumor cells, with weak presence in the cytoplasm (Fig. 4F, 0, Stat3, red merged with blue DAPI nuclear staining). […] Total Stat3 protein levels in all of these studies were unchanged, and GAPDH, tubulin or β-actin levels show equal protein loading. The percent changes induced by H182 treatment on Stat3 DNA-binding activity and phosphorylation in the treated cells are shown.
These studies were performed as previously described [1 -3] . Briefly, snap-frozen tumor tissues or cultured cells treated or not were harvested and whole-cell or tissue lysates were prepared in radioimmunoprecipitation assay (RIPA) buffer. Samples of equal total protein were subjected to SDS - PAGE and immunoblotting analysis. Primary antibodies used were anti- Stat3, pY705-Stat3, pS727Stat3, […]
Akt, pT202/Y204Erk1/2 (p44/42), Erk1/2, PARP , caspase 3, c-Myc, survivin, VEGF, β-actin, α/β-tubulin, and GAPDH. For the studies of the effects of cell density and confluence on pY705Stat3, cells were seeded […] in culture dishes. The next day, cells were untreated (DMSO control, […]
0.1%) or treated at the same time with 1 or 2 µM H182, allowed to incubate for the indicated time and then harvested for whole-cell lysate preparation and SDS -PAGE / immunoblotting analy sis. After 48-h incubation, the cell confluency of the DMSO-treated samples reached to around 60% for MDA-MB -468 cells and 80% for MDA- MB-231 cells. […]

[2] = Solubility; type: physicochemical
Protocol: Solubility, human (HLM) and mouse liver microsomal (MLM), and plasma stability studies were performed by Eurofins Cerep Panlabs and Eurofin Discovery Services (www.eurofins.com/PharmaDiscovery), while protein binding studies were performed by Sanford Burnham Prebys Chemical Biology & Drug Discovery Core using standard protocols.

[3] = aqueous buffer, PBS pH 7.4, read-out: Solubility PBS pH 7.4

T1 sequence (P40763 whole entry): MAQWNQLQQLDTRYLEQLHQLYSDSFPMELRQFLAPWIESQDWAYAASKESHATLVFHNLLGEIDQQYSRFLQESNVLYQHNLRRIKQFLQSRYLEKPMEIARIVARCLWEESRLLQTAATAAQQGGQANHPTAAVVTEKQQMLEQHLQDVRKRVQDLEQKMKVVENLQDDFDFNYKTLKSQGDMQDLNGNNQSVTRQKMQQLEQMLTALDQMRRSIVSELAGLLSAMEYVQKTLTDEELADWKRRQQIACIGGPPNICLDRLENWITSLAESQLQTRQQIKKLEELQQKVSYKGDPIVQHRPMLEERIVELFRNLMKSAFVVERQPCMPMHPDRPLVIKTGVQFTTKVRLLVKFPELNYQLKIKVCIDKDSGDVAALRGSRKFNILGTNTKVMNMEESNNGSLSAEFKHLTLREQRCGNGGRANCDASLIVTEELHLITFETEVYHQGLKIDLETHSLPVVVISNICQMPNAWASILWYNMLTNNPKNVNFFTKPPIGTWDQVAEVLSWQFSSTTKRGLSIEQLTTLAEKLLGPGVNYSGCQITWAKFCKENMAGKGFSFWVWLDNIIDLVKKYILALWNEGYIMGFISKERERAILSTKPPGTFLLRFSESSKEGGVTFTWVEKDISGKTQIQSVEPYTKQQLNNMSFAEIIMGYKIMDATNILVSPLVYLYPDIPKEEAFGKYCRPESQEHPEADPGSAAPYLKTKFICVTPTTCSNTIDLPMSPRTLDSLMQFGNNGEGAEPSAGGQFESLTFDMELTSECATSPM

| Structure (SMILES) | Effect on constitutive Stat3 Tyr phosphorylation (pYStat3) in cells [1] | solubility [2, 3] [µg/mL] | Solubility SGF ([2]; simulated gastric fluid) [µg/mL] | Solubility SIF ([2]; simulated intestinal fluid) [µg/mL] | Duration of inhibition of Stat3 activation (pY705Stat3) ([1]; 3 μM H182) | Effect on EGF-induced pY705Stat3 ([1]; MDA-MB-468 cells, 1–3 μM H182) | solubility ([2]; simulated gastric fluid, read-out: Solubility SGF) | solubility ([2]; simulated intestinal fluid, fassgf or other biorelevant, read-out: Solubility SIF) [µg/mL] |
| --- | --- | --- | --- | --- | --- | --- | --- | --- |
| O=C([C@H]1CCN1S(=O)(=O)c1c(F)c(F)c(F)c(F)c1F)N(Cc1ccc(C2CCCCC2)cn1)c1ccc2c(=O)[nH]cnc2c1 [Compound H172] | dose-dependent inhibition | 6.3 (≈ 9.73 µM) | 104 (≈ 161 µM) | 123 (≈ 190 µM) | – | – | – | – |
| O=C([C@H]1CCN1S(=O)(=O)c1c(F)c(F)c(F)c(F)c1F)N(Cc1ccc(C2CCCCC2)cn1)c1ccc2c(=O)[nH]ncc2c1 [Compound H182] | dose-dependent inhibition | 3 (≈ 4.63 µM) | – | – | sustained inhibition of Stat3 activation for up to 48 h | inhibited EGF-induced pY705Stat3 in MDA-MB-468 cells in a dose-dependent manner | 130 µg/mL and 132 µg/mL | 128 (≈ 198 µM) |
